Results reported in patent US9717699B2, “Sterilized compositions of cyanoacrylate monomers and naphthoquinone 2,3-oxides” (Adhezion Biomedical, LLC, priority 2014, dated 2017).

Assay: Miscibility/solubility of additive in cyanoacrylate monomer
Format: physicochemical
Conditions: activated 2-octyl cyanoacrylate composition, room temperature

Miscibility with 2-octyl cyanoacrylate	Miscibility with 2-octyl cyanoacrylate (listed as Phylloquinone oxide)	Compound
well-miscible		CC1=CC(=O)c2ccccc2C1=O [2-methyl-1,4-naphthoquinone]
well dissolved		CC1=C(C/C=C(\C)CCC[C@H](C)CCC[C@H](C)CCCC(C)C)C(=O)c2ccccc2C1=O [2-methyl-3-phytyl-1,4-naphthoquinone]
well-miscible	well miscible	C/C(=C\CC12OC1(C)C(=O)c1ccccc1C2=O)CCCC(C)CCCC(C)CCCC(C)C (centres unmarked) [Vitamin K1 oxide, 2-methyl-3-phytyl-1,4-naphthoquinone 2,3-oxide]

Compound	Miscibility with 2-octyl cyanoacrylate	Miscibility with 2-octyl cyanoacrylate (listed as Phylloquinone oxide)
CC(=O)Oc1cc(C)c(OC(C)=O)c2ccccc12 [1,4-diacetoxy-2-methylnaphthalene]	well soluble	
